Data from PMC3682772 (MedChemComm, 2012).

Assays:
[1] = Solubility in water / D2O; assay type: physicochemical
tubulin [2] = details: read-out: Inhibition of tubulin polymerization IC50; ref [34]; cited from earlier work
tubulin [3] = test: Inhibition of [3H]colchicine binding to tubulin; details: inhibitor 5 µM; 1 µM tubulin, 5 µM [3H]colchicine
[4] = system: HUVECs capillary-like tubule network; test: HUVEC endothelial tube disruption on Matrigel; assay type: cell-based, human; details: 2 h treatment of network pre-established over 16 h
[5] = system: NCI-H460 non-small cell lung cancer cell line; test: Cytotoxicity, SRB assay, NCI-H460; details: Homo sapiens, NCI-H460, read-out: GI50 SRB assay NCI-H460

## COc1ccc2c(c1N)CCCC=C2c1cc(OC)c(OC)c(OC)c1.Cl [Compound 16]
[1]; hydrochloride salt
  Solubility in water: limited solubility in water
[1]; in approximately 1.0 mL of D2O (NMR study), clear solution took several days
  Amount completely dissolved: approximately 3 mg

## COc1ccc(/C=C\c2cc(OC)c(OC)c(OC)c2)c(O)c1O [CA1, Combretastatin A-1]
Tubulin [2]
  IC50: 1900 nM

## COc1ccc(/C=C\c2cc(OC)c(OC)c(OC)c2)cc1O [CA4, combretastatin A-4, reference compound]
Tubulin [3]
  Inhibition of Colchicine binding: 100%
[4]; 0.01 µM
  Tubule disruption: tubule disruption activity was detected

## COc1ccc2c(c1N)CCCC=C2c1cc(OC)c(OC)c(OC)c1 [Compound 3]
[5]
  GI50: 4.69 nM
[4]; 0.10 µM
  Tubule disruption: Tubule disruption and cell rounding was observed
[4]; 1 µM
  Tubule disruption: greatly increased
